Ten substances from patent US10674723B2, “1,8-bis(Schiff base)-p-menthane derivatives as well as preparation method and applications thereof” (INSTITUTE OF CHEMICAL INDUSTRY OF FOREST PRODUCTS, CAF, priority 2016, dated 2020) can be followed below.

One test deals with annual ryegrass. As to the kind of experiment: Pre-emergence herbicidal activity by the Petri dish seed germination method. Particulars: 0.3125 mmol/L solution; 25° C., 5 days. It counts as in vivo. Here is the method: Step 2: accurately weigh 1 mmol of the 1,8-bis(Schiff base)-p-menthane derivative and dissolve it in 0.25 mL DMF, and then add a drop of Tween 80 into it; after the product is fully dissolved, the resulting solution is transferred to a 100 mL volumetric flask and is diluted with distilled water to the mark to obtain a solution having a concentration of 10 mmol/L as the mother liquor. Using the two-fold dilution method, a series of diluted sample solutions with different concentrations are prepared with the mother liquor (the concentrations of DMF and Tween 80 in the diluted solutions should be consistent with those in the mother liquor).
The annual ryegrass seeds are soaked with distilled water for 15 h. Place a piece of filter paper on the bottom of a Petri dish (φ9 cm), add 10 mL of the above sample solution having the corresponding concentration into it, respectively, and add the same amount of the mixture of water, DMF and Tween 80 into such a Petri dish as a blank control. Place 10 grains of seeds into each dish. The dishes are then placed in an incubator and cultured at 25° C. for 5 days. The experimental data are analyzed with DPS software, and the inhibition rate of the 1,8-bis(Schiff base)-p-menthane derivative on the root or stem growth of ryegrass seeds is calculated as follows:
[formula] Where: y is the inhibition rate on the root or stem growth, x2 is the root length or stem length of the control sample, and x1 is the root length or stem length of the sample.
1 mmol of the 1,8-bis(2-hydroxyphenylimine)-p-menthane was accurately weighed and dissolved in 0.25 mL DMF; a drop of Tween 80 was then added into it; after the product was fully dissolved, the resulting solution was transferred to a 100 mL volumetric flask and was diluted with distilled water to the mark to obtain a solution having a concentration of 10 mmol/L as the mother liquor. Using the two-fold dilution method, a series of diluted sample solutions with different concentrations (5 mmol/L, 2.5 mmol/L, 1.25 mmol/L, 0.625 mmol/L and 0.3125 mmol/L; the concentrations of DMF and Tween 80 in the diluted solutions should be consistent with those in the mother liquor) were prepared with the mother liquor.
The annual ryegrass seeds were soaked with distilled water for 15 h. Placed a piece of filter paper on the bottom of a Petri dish (φ 9 cm), added 10 mL of the above sample solution having the corresponding concentration into it, respectively, and added the same amount of the mixture of water, DMF and Tween 80 into such a Petri dish as a blank control. 10 grains of seeds were placed into each of the dishes. The dishes were then placed in an incubator and cultured at 25° C. for 5 days.
As to “1,8-bis(2-hydroxyphenylimine)-p-menthane”, the “inhibition rate on the root growth of ryegrass seeds” value (“inhibition rate on the root growth” below) was 14.3% and the “inhibition rate on the stem growth of ryegrass seeds” value (shortened to “inhibition rate on the stem growth”) came out at 6.9%.

As for “1,8-bis(2-trifluoromethylphenylimine)-p-menthane”, the “inhibition rate on the root growth” value is given as 79.2% and the “inhibition rate on the stem growth” value turned out to be 56.3%.

Take 1,8-bis(4-bromophenylimine)-p-menthane: the “inhibition rate on the root growth” value turned out to be 71.0% and the “inhibition rate on the stem growth” value turned out to be 64.8%.

Turning to 1,8-bis(4-chlorophenylimine)-p-menthane, the “inhibition rate on the root growth” value turned out to be 94.1% and the “inhibition rate on the stem growth” value is on record as 75.2%.

For 1,8-bis(4-fluorophenylimine)-p-menthane, the “inhibition rate on the root growth” value worked out at 14.0% and the “inhibition rate on the stem growth” value is reported as 4.5%.

Regarding “1,8-bis(4-methoxyphenylimine)-p-menthane”, the “inhibition rate on the root growth” value turned out to be 12.5% and the “inhibition rate on the stem growth” value was 30.6%.

For 1,8-bis(4-methylphenylimine)-p-menthane, the “inhibition rate on the root growth” value is recorded as 20.3% and the “inhibition rate on the stem growth” value turned out to be 11.1%.

For “1,8-bis(p-dimethylaminophenylimine)-p-menthane”, the “inhibition rate on the root growth” value stood at 100.0% and the “inhibition rate on the stem growth” value was 96.8%.

Turning to “1,8-bis(p-methylthiophenylimine)-p-menthane”, the “inhibition rate on the root growth” value stood at 37.7% and the “inhibition rate on the stem growth” value is listed as 20.8%.

Consider “1,8-bis(p-trifluoromethylphenylimine)-p-menthane”, for which the “inhibition rate on the root growth” value is 35.4% and the “inhibition rate on the stem growth” value is listed as 1.1%.

The test is the same for the next values; noted with them: 0.625 mmol/L solution; 25° C., 5 days.
In the case of “1,8-bis(2-hydroxyphenylimine)-p-menthane”, the “inhibition rate on the root growth” value is on record as 41.4% and the “inhibition rate on the stem growth” value turned out to be 38.0%.

For “1,8-bis(2-trifluoromethylphenylimine)-p-menthane”, the “inhibition rate on the root growth” value was 86.2% and the “inhibition rate on the stem growth” value is reported as 56.3%.

On to 1,8-bis(4-bromophenylimine)-p-menthane, for which the “inhibition rate on the root growth” value is 88.0% and the “inhibition rate on the stem growth” value is reported as 79.5%.

Consider 1,8-bis(4-chlorophenylimine)-p-menthane, for which the “inhibition rate on the root growth” value stood at 98.0% and the “inhibition rate on the stem growth” value is listed as 90.3%.

As for 1,8-bis(4-fluorophenylimine)-p-menthane, the “inhibition rate on the root growth” value worked out at 35.0% and the “inhibition rate on the stem growth” value worked out at 21.6%.

Consider “1,8-bis(4-methoxyphenylimine)-p-menthane”, for which the “inhibition rate on the root growth” value amounted to 15.5% and the “inhibition rate on the stem growth” value is on record as 32.2%.

For 1,8-bis(4-methylphenylimine)-p-menthane, the “inhibition rate on the root growth” value came to 26.3% and the “inhibition rate on the stem growth” value is listed as 25.9%.

In the case of “1,8-bis(p-dimethylaminophenylimine)-p-menthane”, the “inhibition rate on the root growth” value is reported as 100.0% and the “inhibition rate on the stem growth” value turned out to be 100.0%.

For the substance “1,8-bis(p-methylthiophenylimine)-p-menthane”, the “inhibition rate on the root growth” value is 46.4% and the “inhibition rate on the stem growth” value stood at 28.7%.

For “1,8-bis(p-trifluoromethylphenylimine)-p-menthane”, the “inhibition rate on the root growth” value was 45.5% and the “inhibition rate on the stem growth” value was 2.4%.

The test is the same for the next values; noted with them: 1.25 mmol/L solution; 25° C., 5 days.
For the substance “1,8-bis(2-hydroxyphenylimine)-p-menthane”, the “inhibition rate on the root growth” value was found to be 62.2% and the “inhibition rate on the stem growth” value is listed as 61.7%.

In the case of “1,8-bis(2-trifluoromethylphenylimine)-p-menthane”, the “inhibition rate on the root growth” value was 99.7% and the “inhibition rate on the stem growth” value stood at 88.2%.

On to 1,8-bis(4-bromophenylimine)-p-menthane, for which the “inhibition rate on the root growth” value was 100.0% and the “inhibition rate on the stem growth” value was 100.0%.

As for 1,8-bis(4-chlorophenylimine)-p-menthane, the “inhibition rate on the root growth” value was determined as 99.3% and the “inhibition rate on the stem growth” value is given as 91.4%.

Take 1,8-bis(4-fluorophenylimine)-p-menthane: the “inhibition rate on the root growth” value came out at 58.0% and the “inhibition rate on the stem growth” value came to 49.9%.

As for “1,8-bis(4-methoxyphenylimine)-p-menthane”, the “inhibition rate on the root growth” value came out at 54.3% and the “inhibition rate on the stem growth” value came out at 48.2%.

For the substance 1,8-bis(4-methylphenylimine)-p-menthane, the “inhibition rate on the root growth” value is 34.2% and the “inhibition rate on the stem growth” value is on record as 26.8%.

Consider “1,8-bis(p-dimethylaminophenylimine)-p-menthane”, for which the “inhibition rate on the root growth” value was 100.0% and the “inhibition rate on the stem growth” value was determined as 100.0%.

For “1,8-bis(p-methylthiophenylimine)-p-menthane”, the “inhibition rate on the root growth” value stood at 35.4% and the “inhibition rate on the stem growth” value is given as 27.1%.

In the case of “1,8-bis(p-trifluoromethylphenylimine)-p-menthane”, the “inhibition rate on the root growth” value turned out to be 65.8% and the “inhibition rate on the stem growth” value is reported as 26.0%.

Still in this test, the particulars now being: 2.5 mmol/L solution; 25° C., 5 days.
With “1,8-bis(2-hydroxyphenylimine)-p-menthane”, the “inhibition rate on the root growth” value was determined as 83.3% and the “inhibition rate on the stem growth” value was 79.5%.

Regarding “1,8-bis(2-trifluoromethylphenylimine)-p-menthane”, the “inhibition rate on the root growth” value was 100.0% and the “inhibition rate on the stem growth” value was determined as 100.0%.

In the case of 1,8-bis(4-bromophenylimine)-p-menthane, the “inhibition rate on the root growth” value was 100.0% and the “inhibition rate on the stem growth” value is 100.0%.

Turning to 1,8-bis(4-chlorophenylimine)-p-menthane, the “inhibition rate on the root growth” value was 100.0% and the “inhibition rate on the stem growth” value worked out at 98.2%.

As for 1,8-bis(4-fluorophenylimine)-p-menthane, the “inhibition rate on the root growth” value stood at 78.0% and the “inhibition rate on the stem growth” value worked out at 53.8%.

In the case of “1,8-bis(4-methoxyphenylimine)-p-menthane”, the “inhibition rate on the root growth” value is listed as 88.3% and the “inhibition rate on the stem growth” value is given as 73.9%.

As to 1,8-bis(4-methylphenylimine)-p-menthane, the “inhibition rate on the root growth” value is 67.0% and the “inhibition rate on the stem growth” value stood at 46.2%.

Turning to “1,8-bis(p-dimethylaminophenylimine)-p-menthane”, the “inhibition rate on the root growth” value is 100.0% and the “inhibition rate on the stem growth” value was 100.0%.

As for “1,8-bis(p-methylthiophenylimine)-p-menthane”, the “inhibition rate on the root growth” value amounted to 54.8% and the “inhibition rate on the stem growth” value was 28.0%.

“1,8-bis(p-trifluoromethylphenylimine)-p-menthane”: the “inhibition rate on the root growth” value is 87.5% and the “inhibition rate on the stem growth” value stood at 53.7%.

Still in this test, the particulars now being: 5 mmol/L solution; 25° C., 5 days.
As for “1,8-bis(2-hydroxyphenylimine)-p-menthane”, the “inhibition rate on the root growth” value was 100.0% and the “inhibition rate on the stem growth” value worked out at 100.0%.

Regarding “1,8-bis(2-trifluoromethylphenylimine)-p-menthane”, the “inhibition rate on the root growth” value is given as 100.0% and the “inhibition rate on the stem growth” value is recorded as 100.0%.

On to 1,8-bis(4-bromophenylimine)-p-menthane, for which the “inhibition rate on the root growth” value amounted to 100.0% and the “inhibition rate on the stem growth” value is recorded as 100.0%.

For 1,8-bis(4-chlorophenylimine)-p-menthane, the “inhibition rate on the root growth” value turned out to be 100.0% and the “inhibition rate on the stem growth” value worked out at 100.0%.

Turning to 1,8-bis(4-fluorophenylimine)-p-menthane, the “inhibition rate on the root growth” value is reported as 85.5% and the “inhibition rate on the stem growth” value came out at 82.5%.

Take “1,8-bis(4-methoxyphenylimine)-p-menthane”: the “inhibition rate on the root growth” value amounted to 100.0% and the “inhibition rate on the stem growth” value stood at 100.0%.

Consider 1,8-bis(4-methylphenylimine)-p-menthane, for which the “inhibition rate on the root growth” value worked out at 92.8% and the “inhibition rate on the stem growth” value came out at 90.4%.

On to “1,8-bis(p-dimethylaminophenylimine)-p-menthane”, for which the “inhibition rate on the root growth” value was found to be 100.0% and the “inhibition rate on the stem growth” value came out at 100.0%.

As for “1,8-bis(p-methylthiophenylimine)-p-menthane”, the “inhibition rate on the root growth” value stood at 50.3% and the “inhibition rate on the stem growth” value is on record as 21.9%.

Regarding “1,8-bis(p-trifluoromethylphenylimine)-p-menthane”, the “inhibition rate on the root growth” value is listed as 81.7% and the “inhibition rate on the stem growth” value is listed as 34.8%.

Staying with this test, now noted: 10 mmol/L solution; 25° C., 5 days.
Turning to “1,8-bis(2-hydroxyphenylimine)-p-menthane”, the “inhibition rate on the root growth” value is 100.0% and the “inhibition rate on the stem growth” value is on record as 100.0%.

For “1,8-bis(2-trifluoromethylphenylimine)-p-menthane”, the “inhibition rate on the root growth” value is reported as 100.0% and the “inhibition rate on the stem growth” value came out at 100.0%.

Regarding 1,8-bis(4-bromophenylimine)-p-menthane, the “inhibition rate on the root growth” value turned out to be 100.0% and the “inhibition rate on the stem growth” value worked out at 100.0%.

Consider 1,8-bis(4-chlorophenylimine)-p-menthane, for which the “inhibition rate on the root growth” value is given as 100.0% and the “inhibition rate on the stem growth” value came to 100.0%.

Turning to 1,8-bis(4-fluorophenylimine)-p-menthane, the “inhibition rate on the root growth” value was 94.9% and the “inhibition rate on the stem growth” value is on record as 94.9%.

“1,8-bis(4-methoxyphenylimine)-p-menthane”: the “inhibition rate on the root growth” value was determined as 100.0% and the “inhibition rate on the stem growth” value worked out at 100.0%.

For the substance 1,8-bis(4-methylphenylimine)-p-menthane, the “inhibition rate on the root growth” value is 100.0% and the “inhibition rate on the stem growth” value amounted to 100.0%.

In the case of “1,8-bis(p-dimethylaminophenylimine)-p-menthane”, the “inhibition rate on the root growth” value is given as 100.0% and the “inhibition rate on the stem growth” value is recorded as 100.0%.

Take “1,8-bis(p-methylthiophenylimine)-p-menthane”: the “inhibition rate on the root growth” value stood at 67.8% and the “inhibition rate on the stem growth” value is 36.7%.

Turning to “1,8-bis(p-trifluoromethylphenylimine)-p-menthane”, the “inhibition rate on the root growth” value is 93.8% and the “inhibition rate on the stem growth” value was 87.9%.
